Key:
blackgrass = assay: Test B pre/postemergence blackgrass; type: in vivo, Alopecurus myosuroides
Method in brief: (§1)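 Herbicidal effect was estimated by eye on a ten-point control scale after plants spent twelve to sixteen days in a greenhouse following soil or foliar treatment. Foliar sprays targeted plants at one to four leaves; all doses were formulated in a non-phytotoxic solvent with surfactant.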

surinam grass = assay: Test B pre/postemergence surinam grass; type: in vivo, Brachiaria decumbens
Method in brief: as §1

cocklebur = assay: Test B pre/postemergence cocklebur; type: in vivo, Xanthium strumarium
Method in brief: as §1

corn = assay: Test B pre/postemergence corn; type: in vivo, Zea mays
Method in brief: as §1

crabgrass = assay: Test B pre/postemergence crabgrass; type: in vivo, Digitaria sanguinalis
Method in brief: as §1

giant foxtail = assay: Test B pre/postemergence giant foxtail; type: in vivo, Setaria faberii
Method in brief: as §1

pigweed = assay: Test B pre/postemergence pigweed; type: in vivo, Amaranthus retroflexus
Method in brief: as §1

rape = assay: Test B pre/postemergence rape; type: in vivo, Brassica napus
Method in brief: as §1

soybean = assay: Test B pre/postemergence soybean; type: in vivo, Glycine max
Method in brief: as §1

sugar beet = assay: Test B pre/postemergence sugar beet; type: in vivo, Beta vulgaris
Method in brief: as §1

wheat = assay: Test B pre/postemergence wheat; type: in vivo, Triticum aestivum
Method in brief: as §1

purple nutsedge = assay: Test B pre/postemergence purple nutsedge; type: in vivo, Cyperus rotundus
Method in brief: as §1

rice = assay: Test B flood test rice; type: in vivo, Oryza sativa
Method in brief: (§2)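 Plants were grown to the 2-leaf stage before treatment with test chemical, then held in a greenhouse for twelve to sixteen days. Injury was visually rated against untreated controls on a 0–10 scale, where 0 is no effect and 10 is complete control.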

smallflower flatsedge = assay: Test B flood test smallflower flatsedge; type: in vivo, Cyperus difformis
Method in brief: as §2

duck salad = assay: Test B flood test duck salad; type: in vivo, Heteranthera limosa
Method in brief: as §2

bamyardgrass = assay: Test B flood test barnyardgrass; type: in vivo, Echinochloa crus-galli
Method in brief: as §2

[1] = Postemergence, Rate 62 g/ha, scale 0 to 10, 0 is no effect, 10 is complete control
[2] = Postemergence, Rate 125 g/ha, scale of 0 to 10 where 0 is no effect and 10 is complete control
[3] = Postemergence, Rate 250 g/ha, scale of 0 to 10, 0 is no effect, 10 is complete control
[4] = Postemergence, Rate 500 g/ha, scale of 0 to 10 where 0 is no effect and 10 is complete control
[5] = Preemergence, Rate 62 g/ha, scale 0 to 10 (0 no effect, 10 complete control)
[6] = Preemergence, Rate 125 g/ha, scale of 0 to 10 where 0 is no effect and 10 is complete control
[7] = Preemergence, Rate 500 g/ha, scale of 0 to 10 where 0 is no effect and 10 is complete control
[8] = Rate 62 g/ha, flood test species, Pre-emergence, visual evaluation after twelve to sixteen days
[9] = Rate 125 g/ha, under heading Pre-emergence, flood test species, visual evaluation after twelve to sixteen days
[10] = Rate 250 g/ha, Pre-emergence (flood test species), scale 0 to 10, 0 is no effect, 10 is complete control
[11] = Rate 500 g/ha, Pre-emergence section of Table B, 0 to 10 scale (0 no effect, 10 complete control)

## CCC(C)n1c(=O)on(C(=O)N(c2ccccc2)C(C)C)c1=O (centres unmarked) [Compound 612]
blackgrass; [1]
  Plant response rating, Blackgrass: 7
blackgrass; [2]
  Plant response rating, Blackgrass: 9
blackgrass; [3]
  Blackgrass plant response rating: 9
blackgrass; [4]
  Plant response rating, Blackgrass: 10
blackgrass; [5]
  Blackgrass plant response rating: 8
blackgrass; [6]
  Blackgrass plant response rating: 10
blackgrass; Preemergence, Rate 250 g/ha
  Blackgrass plant response rating (0 to 10 scale): 10
blackgrass; [7]
  Blackgrass plant response rating: 10
Surinam grass; [1]
  Plant response rating, B. signalgrass: 1
Surinam grass; [2]
  Plant response rating, B. signalgrass: 3
Surinam grass; [3]
  B. signalgrass plant response rating: 7
Surinam grass; [4]
  Plant response rating, B. signalgrass: 9
Surinam grass; [5]
  B. signalgrass plant response rating: 4
Surinam grass; [6]
  B. signalgrass plant response rating: 7
Surinam grass; Preemergence, Rate 250 g/ha
  B. signalgrass plant response rating (0 to 10 scale, 0 is no effect, 10 is complete control): 10
Surinam grass; [7]
  B. signalgrass plant response rating: 10
cocklebur; [1]
  Plant response rating, Cocklebur: 0
cocklebur; [2]
  Plant response rating, Cocklebur: 0
cocklebur; [3]
  Cocklebur plant response rating: 0
cocklebur; [4]
  Plant response rating, Cocklebur: 2
cocklebur; [5]
  Cocklebur plant response rating: 0
cocklebur; [6]
  Cocklebur plant response rating: 0
cocklebur; Preemergence, Rate 250 g/ha
  Cocklebur plant response rating (0 to 10 scale): 0
cocklebur; [7]
  Plant response rating, Cocklebur: 0
corn; [1]
  Plant response rating, Corn: 0
corn; [2]
  Plant response rating, Corn: 0
corn; [3]
  Corn plant response rating: 0
corn; [4]
  Plant response rating, Corn: 0
corn; [5]
  Corn plant response rating: 0
corn; [6]
  Corn plant response rating: 3
corn; Preemergence, Rate 250 g/ha
  Corn plant response rating (0 to 10 scale): 8
corn; [7]
  Plant response rating, Corn: 9
crabgrass; [1]
  Plant response rating, Crabgrass: 4
crabgrass; [2]
  Plant response rating, Crabgrass: 8
crabgrass; [3]
  Crabgrass plant response rating: 9
crabgrass; [4]
  Plant response rating, Crabgrass: 10
crabgrass; [5]
  Crabgrass plant response rating: 10
crabgrass; [6]
  Crabgrass plant response rating: 10
crabgrass; [7]
  Plant response rating, Crabgrass: 10
Giant foxtail; [1]
  Plant response rating, Giant foxtail: 7
Giant foxtail; [2]
  Plant response rating, Giant foxtail: 9
Giant foxtail; [3]
  Giant foxtail plant response rating: 9
Giant foxtail; [4]
  Plant response rating, Giant foxtail: 9
Giant foxtail; [5]
  Giant foxtail plant response rating: 10
Giant foxtail; [6]
  Giant foxtail plant response rating: 10
Giant foxtail; [7]
  Plant response rating, Giant foxtail: 10
pigweed; [1]
  Plant response rating, Redroot pigweed: 0
pigweed; [2]
  Plant response rating, Redroot pigweed: 2
pigweed; [3]
  Redroot pigweed plant response rating: 4
pigweed; [4]
  Plant response rating, Redroot pigweed: 7
pigweed; [5]
  Redroot pigweed plant response rating: 8
pigweed; [6]
  Redroot pigweed plant response rating: 10
pigweed; [7]
  Plant response rating, Redroot pigweed: 10
rape; [1]
  Plant response rating, Rape: 0
rape; [2]
  Plant response rating, Rape: 0
rape; [3]
  Rape plant response rating: 0
rape; [4]
  Plant response rating, Rape: 7
rape; [5]
  Rape plant response rating: 0
rape; [6]
  Rape plant response rating: 3
rape; [7]
  Plant response rating, Rape: 10
soybean; [1]
  Plant response rating, Soybean: 4
soybean; [2]
  Plant response rating, Soybean: 5
soybean; [3]
  Soybean plant response rating: 7
soybean; [4]
  Plant response rating, Soybean: 8
soybean; [5]
  Soybean plant response rating: 0
soybean; [6]
  Soybean plant response rating: 0
soybean; [7]
  Plant response rating, Soybean: 3
Sugar beet; [1]
  Plant response rating, Sugarbeets: 0
Sugar beet; [2]
  Plant response rating, Sugarbeets: 0
Sugar beet; [3]
  Sugarbeets plant response rating: 0
Sugar beet; [4]
  Plant response rating, Sugarbeets: 1
Sugar beet; [5]
  Sugarbeets plant response rating: 3
Sugar beet; [6]
  Sugarbeets plant response rating: 5
Sugar beet; [7]
  Plant response rating, Sugarbeets: 7
wheat; [1]
  Plant response rating, Wheat: 0
wheat; [2]
  Plant response rating, Wheat: 2
wheat; [3]
  Wheat plant response rating: 2
wheat; [4]
  Plant response rating, Wheat: 5
wheat; [5]
  Wheat plant response rating: 0
wheat; [6]
  Wheat plant response rating: 3
wheat; [7]
  Plant response rating, Wheat: 8
Purple nutsedge; [1]
  Plant response rating, Nutsedge: 0
Purple nutsedge; [2]
  Plant response rating, Nutsedge: 0
Purple nutsedge; [3]
  Nutsedge plant response rating: 0
Purple nutsedge; [4]
  Plant response rating, Nutsedge: 2
Purple nutsedge; [5]
  Nutsedge plant response rating: 0
Purple nutsedge; [6]
  Nutsedge plant response rating: 0
Purple nutsedge; [7]
  Plant response rating, Nutsedge: 3
rice; [8]
  Plant response rating, Rice (0 to 10 scale, 0 is no effect, 10 is complete control): 0
rice; [9]
  Rice plant response rating (0 to 10 scale, 0 is no effect, 10 is complete control): 0
rice; [10]
  Rice plant response rating: 0
rice; [11]
  Rice plant response rating: 0
Smallflower flatsedge; [8]
  Plant response rating, S. Flatsedge (0 to 10 scale, 0 is no effect, 10 is complete control): 0
Smallflower flatsedge; [9]
  S. Flatsedge plant response rating (0 to 10 scale, 0 is no effect, 10 is complete control): 0
Smallflower flatsedge; [10]
  S. Flatsedge plant response rating: 0
Smallflower flatsedge; [11]
  S. Flatsedge plant response rating: 0
Duck salad; [8]
  Plant response rating, Ducksalad (0 to 10 scale, 0 is no effect, 10 is complete control): 0
Duck salad; [9]
  Ducksalad plant response rating (0 to 10 scale, 0 is no effect, 10 is complete control): 0
Duck salad; [10]
  Ducksalad plant response rating: 0
Duck salad; [11]
  Ducksalad plant response rating: 0
bamyardgrass; [8]
  Plant response rating, Barnyardgrass (0 to 10 scale, 0 is no effect, 10 is complete control): 0
bamyardgrass; [9]
  Barnyardgrass plant response rating (0 to 10 scale, 0 is no effect, 10 is complete control): 0
bamyardgrass; [10]
  Barnyardgrass plant response rating: 0
bamyardgrass; [11]
  Barnyardgrass plant response rating: 0
